Assay results reported in US20250177405A1, “METHODS OF TREATING NEUROLOGICAL AND CARDIOVASCULAR CONDITIONS” (ASTROCYTE PHARMACEUTICALS, INC., priority 2021, published 2025).
Entries after “also recorded” stand apart in the source; their conditions may differ.

What was measured:
[1] = system: brain A1R/A3R; test: estimated brain receptor occupancy of I-1 in neonatal pig efficacy studies; format: in vivo
Description: Receptor occupancy is a mass action relationship:
The percentage of a receptor occupied by an agonist or antagonist is a function of the drug concentration and the drug affinity for the receptor target. The challenge is that drug concentrations at the target site (in this case, brain, and CSF) can vary by species, as can affinity for the drug target. Affinity of I-1 for its receptor target can vary by as much as 5-fold between species. Accordingly, for each species, it is necessary to determine the I-1 affinity for its target as well as the concentration of I-1 at each administered dose in a relevant matrix.
Using this receptor occupancy estimate, we advanced to studies in neonatal pigs, targeting doses that would yield unbound brain and CSF concentrations that would provide a similar receptor occupancy to that associated with efficacy in the rodent models. In the pig, we had the advantage of conducting pharmacokinetic studies involving CSF collection, brain equilibrium dialysis to directly determine brain unbound extracellular fluid concentrations, plasma concentrations and finally total brain concentrations. […] This was a key study to validate the use of I-1 CSF concentrations to estimate brain receptor occupancy. In the pig efficacy studies, we achieved efficacy at estimated receptor occupancies of around 2%.

[2] = system: traumatic brain injury (TBI) in mice; test: mouse traumatic brain injury (TBI) model; conditions: in vivo
Description: Animals and traumatic brain injury (TBI): TBI is performed with a controlled closed skull injury model as described in Talley-Watts et al. 2012 (J. Neurotrauma 30, 55-66). Following the method described therein, a pneumatic impact device is used to generate a moderate TBI leaving the skull and dura matter intact. To achieve this, C57BL/6 mice are anesthetized with isoflurane (3% induction, 1% maintenance) in 100% oxygen. A body temperature of 37° C. is maintained using a temperature-controlled heated surgical table. A small midline incision is made on the scalp using aseptic surgical techniques. A 5 mm stainless steel disc is positioned on the skull and fixed using superglue on the right parietal bone between bregma and lamda over the somatosensory cortex. The mouse is then positioned on a stage directly under the pneumatic impact tip. […] Mice are placed in a Thermo-Intensive Care Unit (Braintree Scientific model FV-1; 37° C.; 27% O2) and monitored until fully awake and moving freely. […]
Western Blot Analysis for GFAP: At selected survival times, mice are anesthetized under isoflurane and sacrificed. […] The homogenate is transferred to a 2 mL tube and centrifuged at 1000 g for 10 minutes at 4° C. and the supernatant is collected and analyzed. Protein concentration is determined by the BCA assay using a 1:50 dilution. […]

CSc1nc(N)c2ncn([C@H]3C(O)C(O)[C@]4(CO)C[C@H]34)c2n1 (stereo in doubt) [Compound I-1]
estimated receptor occupancies at which efficacy was achieved [1]: around 2% | efficacy in mouse TBI model [2]: effective; also recorded: significant efficacy
